# Experimental data as given in US20050101595A1, “N-containing cycloalkyl-substituted amino-thiazole derivatives and pharmaceutical compositions for inhibiting cell proliferation and methods for their use” (PFIZER INC., priority 2003, published 2005).
# Structures can show the parent of a compound that is named as a salt. Where two headings read alike, the source gives them in different places.
# Legend:
# [1] = target: human CDK4 and genetically truncated (1-264) cyclin D3 (Homo sapiens, UniProt P11802); assay: Inhibition of CDK4/Cyclin D Retinoblastoma Kinase Activity; type: biochemical; settings: for Ki: apparent Ki, CDK4/truncated cyclin D3, Rb fragment substrate, 25 μM ATP
# human CDK4 and genetically truncated (1-264) cyclin D3, sequence (P11802 whole entry, the tested form may be a part): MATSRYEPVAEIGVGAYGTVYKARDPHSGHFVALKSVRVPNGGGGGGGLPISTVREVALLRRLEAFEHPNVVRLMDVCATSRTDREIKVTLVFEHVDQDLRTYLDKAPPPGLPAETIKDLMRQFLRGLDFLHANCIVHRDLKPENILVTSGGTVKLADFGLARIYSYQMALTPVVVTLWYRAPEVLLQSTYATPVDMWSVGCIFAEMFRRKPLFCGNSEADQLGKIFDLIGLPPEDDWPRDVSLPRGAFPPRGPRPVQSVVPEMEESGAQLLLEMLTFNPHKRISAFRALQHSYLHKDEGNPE
# human CDK4 and genetically truncated (1-264) cyclin D3, sequence (P30281 1-264 partner): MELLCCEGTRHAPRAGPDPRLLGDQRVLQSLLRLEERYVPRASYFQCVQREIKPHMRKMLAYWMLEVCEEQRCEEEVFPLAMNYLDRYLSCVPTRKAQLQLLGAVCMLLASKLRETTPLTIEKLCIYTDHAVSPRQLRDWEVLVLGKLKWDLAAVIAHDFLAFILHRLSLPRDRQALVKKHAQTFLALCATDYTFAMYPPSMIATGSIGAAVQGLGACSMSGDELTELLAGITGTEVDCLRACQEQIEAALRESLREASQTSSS
# Method in brief: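 Human CDK4/truncated cyclin D3 (1-264) complex from baculovirus-infected insect cells, 5 nM, phosphorylating Rb fragment (residues 386-928, His-tagged) with 25 μM [32/33P]ATP in HEPES pH 7.4, MgCl2, 2% DMSO at 30° C. for 20 min (60 min for tight binders). Filter-captured radioactivity by phosphorimager; apparent Ki from competitive or tight-binding fits.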
# CDK2/Cyclin A = CDK2/Cyclin A (Homo sapiens, UniProt P24941); assay: Inhibition of CDK2/Cyclin A Retinoblastoma Kinase Activity; type: biochemical; settings: for CDK2 % Inhibition At 0.03 μM: Table 2; for Ki: apparent Ki, CDK2/proteolyzed cyclin A, Rb fragment substrate, 25 μM ATP
# Method in brief: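 Baculovirus-expressed CDK2 complexed with proteolyzed cyclin A (10 or 19 nM), Rb fragment substrate, 25 μM [32P/33P]ATP, HEPES pH 7.4, 30 °C for 60 or 75 min under initial-rate conditions. Filter capture and phosphorimager readout; apparent Ki fitted to competitive or tight-binding competitive inhibition.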
# HCT-116 cell line = assay: Inhibition of cell growth, tetrazolium salt (MTT) assay; type: cell-based; settings: for HCT-116 % Inhibition at 0.25 μM: 0.25 μM compound; for IC50: Homo sapiens, HCT-116, 120 h, MTT, three to five days, read-out: HCT-116 IC50
# Method in brief: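 Growth inhibition is scored relative to cells receiving only 0.5% (v/v) DMSO. Plated cells rest 4 h, then take compound for three to five days at 37° C; MTT reduction to formazan is read at 540 nm.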
# [2] = 0.1 μM compound, HCT-116, Table 3
smiles,measurement,setting,value
CCCC(C)C(=O)N1CCC(Nc2nc(N)c(C(=O)c3c(F)cccc3F)s2)CC1 (centres unmarked) [Example R165],CDK4 % Inhibition at 0.03 μM,[1]; at 0.03 μM,22%
same,CDK2 % Inhibition at 0.03 μM,CDK2/Cyclin A; at 0.03 μM,3%
same,HCT-116 % Inhibition at 0.1 μM,"HCT-116 cell line; HCT-116 cells, at 0.1 μM",0%
same,HCT-116 5 Inhibition at 0.25 μM,HCT-116 cell line; HCT-116 cells,42
N#Cc1ccc(S(=O)(=O)N2CCC(Nc3nc(N)c(C(=O)c4c(F)cccc4F)s3)CC2)c(Cl)c1 [Example P71],CDK4 % Inhibition at 0.03 μM,"[1]; 0.03 μM compound, Table 3",52%
same,CDK2 % Inhibition at 0.03 μM,"CDK2/Cyclin A; 0.03 μM compound, Table 3",57%
same,HCT-116 % Inhibition at 0.1 μM,HCT-116 cell line; [2],13%
same,HCT-116 % Inhibition at 0.25 μM,"HCT-116 cell line; HCT-116, Table 3",21%
Nc1nc(NC2CCN(C(=S)Oc3ccc(F)cc3)CC2)sc1C(=O)c1c(F)cccc1F [Example R85],CDK4 % Inhibition at 0.03 μM,[1]; at 0.03 μM,81%
same,CDK2 % Inhibition at 0.03 μM,CDK2/Cyclin A; at 0.03 μM,90%
same,HCT-116 % Inhibition at 0.1 μM,"HCT-116 cell line; HCT-116 cells, at 0.1 μM",0%
same,HCT-116 5 Inhibition at 0.25 μM,HCT-116 cell line; HCT-116 cells,47
Nc1nc(NC2CCN(C(=O)Nc3ccc([N+](=O)[O-])cc3)CC2)sc1C(=O)c1c(F)cccc1F [Example O36],CDK4 % Inhibition at 0.03 μM,"[1]; 0.03 μM compound, Table 2",12%
same,CDK2 % Inhibition At 0.03 μM,CDK2/Cyclin A; 0.03 μM compound,23%
same,HCT-116 % Inhibition at 0.25 μM,"HCT-116 cell line; HCT-116, Table 2",28%
Nc1nc(NC2CCN(C(=O)CSc3ccccc3)CC2)sc1C(=O)c1c(F)cccc1F [Example R32],CDK4 % Inhibition at 0.03 μM,[1]; at 0.03 μM,65%
same,CDK2 % Inhibition at 0.03 μM,CDK2/Cyclin A; at 0.03 μM,38%
same,HCT-116 % Inhibition at 0.1 μM,"HCT-116 cell line; HCT-116 cells, at 0.1 μM",0%
same,HCT-116 5 Inhibition at 0.25 μM,HCT-116 cell line; HCT-116 cells,48
COC(=O)[C@H](COC(C)(C)C)NC(=O)N1CCC(Nc2nc(N)c(C(=O)c3c(F)cccc3F)s2)CC1 [Example O79],CDK4 % Inhibition at 0.03 μM,"[1]; 0.03 μM compound, Table 2",8%
same,CDK2 % Inhibition At 0.03 μM,CDK2/Cyclin A; 0.03 μM compound,32%
same,HCT-116 % Inhibition at 0.25 μM,"HCT-116 cell line; HCT-116, Table 2",49%
"CCCN(CCCS(=O)(=O)N1CCC(Nc2nc(N)c(C(=O)c3c(F)cccc3F)s2)CC1)CC1CC1 [Example K6, 1-(4-Amino-2-{1-[3-(cyclopropylmethyl-propyl-amino)propane-1-sulfonyl]-piperidin-4-ylamino}-thiazol-5-yl)-1-(2,6-difluoro-phenyl)-methanone.]",Ki,[1],1.5 nM
same,Ki,CDK2/Cyclin A,5.8 nM
same,IC50,HCT-116 cell line; first HCT-116 column (c4),180 nM
same,IC50,HCT-116 cell line; second HCT-116 column (c5),800 nM
"Nc1nc(NC2CCN(S(=O)(=O)c3ccc(Sc4ccccn4)nc3)CC2)sc1C(=O)c1c(F)cccc1F [Example L2, 1-(4-Amino-2-{1-[6-(pyridin-2-ylsulfanyl)-pyridine-3-sulfonyl]-piperidin-4-ylamino}-thiazol-5-yl)-1-(2,6-difluoro-phenyl)-methanone Dihydrochloride.]",Ki,[1],2.7 nM
same,Ki,CDK2/Cyclin A,1.5 nM
same,IC50,HCT-116 cell line; first HCT-116 column (c4),> 500 nM
same,IC50,HCT-116 cell line; second HCT-116 column (c5),> 500 nM
Cc1nn(C)c2ccc(C(=O)N3CCC(Nc4nc(N)c(C(=O)c5c(F)cccc5F)s4)CC3)c(Cl)c12 [Example R48],CDK4 % Inhibition at 0.03 μM,[1]; at 0.03 μM,32%
same,CDK2 % Inhibition at 0.03 μM,CDK2/Cyclin A; at 0.03 μM,16%
same,HCT-116 % Inhibition at 0.1 μM,"HCT-116 cell line; HCT-116 cells, at 0.1 μM",0%
same,HCT-116 5 Inhibition at 0.25 μM,HCT-116 cell line; HCT-116 cells,50
CCOC(=O)CNC(=O)N1CCC(Nc2nc(N)c(C(=O)c3c(F)cccc3F)s2)CC1 [Example O30],CDK4 % Inhibition at 0.03 μM,"[1]; 0.03 μM compound, Table 2",16%
same,CDK2 % Inhibition At 0.03 μM,CDK2/Cyclin A; 0.03 μM compound,27%
same,HCT-116 % Inhibition at 0.25 μM,"HCT-116 cell line; HCT-116, Table 2",31%
CS(=O)(=O)c1ccc(S(=O)(=O)N2CCC(Nc3nc(N)c(C(=O)c4c(F)cccc4F)s3)CC2)cc1 [Example P80],CDK4 % Inhibition at 0.03 μM,"[1]; 0.03 μM compound, Table 3",73%
same,CDK2 % Inhibition at 0.03 μM,"CDK2/Cyclin A; 0.03 μM compound, Table 3",81%
same,HCT-116 % Inhibition at 0.1 μM,HCT-116 cell line; [2],15%
same,HCT-116 % Inhibition at 0.25 μM,"HCT-116 cell line; HCT-116, Table 3",29%
"CN1CCN(CCc2ccc(S(=O)(=O)N3CCC(Nc4nc(N)c(C(=O)c5c(F)cccc5F)s4)CC3)cn2)CC1 [Example N4, [4-Amino-2-(1-{6-[2-(4-methyl-piperazin-1-yl)-ethyl]-pyridine-3-sulfonyl}-piperidin-4-ylamino)-thiazol-5-yl]-(2,6-difluoro-phenyl)-methanone Hydrochloride Salt.]",Ki,[1],0.92 nM
same,Ki,CDK2/Cyclin A,1.7 nM
same,IC50,HCT-116 cell line; first HCT-116 column (c4),360 nM
same,IC50,HCT-116 cell line; second HCT-116 column (c5),> 500 nM
Cc1c(S(=O)(=O)N2CCC(Nc3nc(N)c(C(=O)c4c(F)cccc4F)s3)CC2)sc2ccc(Cl)cc12 [Example P69],CDK4 % Inhibition at 0.03 μM,"[1]; 0.03 μM compound, Table 3",21%
same,CDK2 % Inhibition at 0.03 μM,"CDK2/Cyclin A; 0.03 μM compound, Table 3",−2%
same,HCT-116 % Inhibition at 0.1 μM,HCT-116 cell line; [2],13%
same,HCT-116 % Inhibition at 0.25 μM,"HCT-116 cell line; HCT-116, Table 3",30%
CC1CC(NCCS(=O)(=O)N2CCC(Nc3nc(N)c(C(=O)c4c(F)cccc4F)s3)CC2)CC(C)(C)C1 (centres unmarked) [Example K44],Ki,[1],2.5 nM
same,Ki,CDK2/Cyclin A,0.49 nM
same,IC50,HCT-116 cell line; first HCT-116 column (c4),100 nM
same,IC50,HCT-116 cell line; second HCT-116 column (c5),360 nM
"Nc1ccc(S(=O)(=O)N2CCC(Nc3nc(N)c(C(=O)c4c(F)cccc4F)s3)CC2)cn1 [Example G8, 1-{4-Amino-2-[1-(6-amino-pyridine-3-sulfonyl)-piperidin-4-ylamino]-thiazol-5-yl}-1-(2,6-difluoro-phenyl)-methanone]",Ki,[1],1.9 nM
same,Ki,CDK2/Cyclin A,0.6 nM
same,IC50,HCT-116 cell line; first HCT-116 column (c4),590 nM
same,IC50,HCT-116 cell line; second HCT-116 column (c5),2200 nM
"CN(C)CCCSc1ccc(S(=O)(=O)N2CCC(Nc3nc(N)c(C(=O)c4c(F)cccc4F)s3)CC2)cn1 [Example L5, 1-(4-Amino-2-{1-[6-(3-dimethylamino-propylsulfanyl)-pyridine-3-sulfonyl]-piperidin-4-ylamino}-thiazol-5-yl)-1-(2,6-difluoro-phenyl)-methanone Dihydrochloride.]",Ki,[1],0.67 nM
same,Ki,CDK2/Cyclin A,1.5 nM
same,IC50,HCT-116 cell line; first HCT-116 column (c4),70 nM
same,IC50,HCT-116 cell line; second HCT-116 column (c5),> 500 nM
"CN(C)CCOc1ccc(S(=O)(=O)N2CCC(Nc3nc(N)c(C(=O)c4c(Cl)cccc4Cl)s3)CC2)cn1 [Example H17, 1-(4-Amino-2-{1-[6-(2-dimethylamino-ethoxy)-pyridine-3-sulfonyl]-piperidin-4-ylamino}-thiazol-5-yl)-1-(2,6-dichloro-phenyl)-methanone Hydrochloride Salt]",Ki,[1],1.7 nM
same,Ki,CDK2/Cyclin A,1.8 nM
same,IC50,HCT-116 cell line; first HCT-116 column (c4),50 nM
same,IC50,HCT-116 cell line; second HCT-116 column (c5),170 nM
CC(=O)Nc1ccc(C(=O)N2CCC(Nc3nc(N)c(C(=O)c4c(F)cccc4F)s3)CC2)cc1 [Example R146],CDK4 % Inhibition at 0.03 μM,[1]; at 0.03 μM,83%
same,CDK2 % Inhibition at 0.03 μM,CDK2/Cyclin A; at 0.03 μM,74%
same,HCT-116 % Inhibition at 0.1 μM,"HCT-116 cell line; HCT-116 cells, at 0.1 μM",0%
same,HCT-116 5 Inhibition at 0.25 μM,HCT-116 cell line; HCT-116 cells,10
"CC(=O)Nc1ccc(S(=O)(=O)N2CCC(Nc3nc(N)c(C(=O)c4c(F)cccc4F)s3)CC2)cc1 [Example F5, N-(4-{4-[4-Amino-5-(2,6-difluoro-benzoyl)-thiazol-2-ylamino]-piperidine-1-sulfonyl}-phenyl)-acetamide]",Ki,[1],1 nM
same,Ki,CDK2/Cyclin A,< 1 nM
same,IC50,HCT-116 cell line; first HCT-116 column (c4),500 nM
same,IC50,HCT-116 cell line; second HCT-116 column (c5),1300 nM
Nc1nc(NC2CCN(C(=O)c3cccc(Cl)c3)CC2)sc1C(=O)c1c(F)cccc1F [Example Q19],CDK4 % Inhibition at 0.03 μM,"[1]; 0.03 μM compound, Table 4",59%
same,CDK2 % Inhibition at 0.03 μM,"CDK2/Cyclin A; 0.03 μM compound, Table 4",21%
same,HCT-116 % Inhibition at 0.1 μM,"HCT-116 cell line; 0.1 μM compound, HCT-116, Table 4",32%
same,HCT-116 % Inhibition at 0.25 μM,"HCT-116 cell line; HCT-116, Table 4",83%
"Cn1cnc(-c2ccc(S(=O)(=O)N3CCC(Nc4nc(N)c(C(=O)c5c(F)cccc5F)s4)CC3)cc2)c1 [Example F31, 1-(4-Amino-2-{1-[4-(1-methyl-1H-imidazol-4-yl)-benzenesulfonyl]-piperidin-4-ylamino}-thiazol-5-yl)-1-(2,6-difluoro-phenyl)-methanone Trifluoroacetic Acid Salt]",Ki,[1],0.55 nM
same,Ki,CDK2/Cyclin A,< 1 nM
same,IC50,HCT-116 cell line; first HCT-116 column (c4),80 nM
same,IC50,HCT-116 cell line; second HCT-116 column (c5),300 nM
"Nc1nc(NC2CCN(S(=O)(=O)CCc3ccccn3)CC2)sc1C(=O)c1c(F)cccc1F [Example F28, 1-{4-Amino-2-[1-(2-pyridin-2-yl-ethanesulfonyl)-piperidin-4-ylamino]-thiazol-5-yl}-1-(2,6-difluoro-phenyl)-methanone]",Ki,[1],8.1 nM
same,Ki,CDK2/Cyclin A,3.6 nM
same,IC50,HCT-116 cell line; first HCT-116 column (c4),650 nM
same,IC50,HCT-116 cell line; second HCT-116 column (c5),1300 nM
"Nc1nc(NC2CCN(S(=O)(=O)CCN3CCCC3c3ccccc3)CC2)sc1C(=O)c1c(F)cccc1F (centres unmarked) [Example K29, Trifluoroacetic Acid Salt]",Ki,[1],1.6 nM
same,Ki,CDK2/Cyclin A,3.7 nM
same,IC50,HCT-116 cell line; first HCT-116 column (c4),160 nM
same,IC50,HCT-116 cell line; second HCT-116 column (c5),510 nM
